Read-outs that look alike come from different tables or passages of the source. Each block holds one compound with its values, some of them ahead of it.
How the values were obtained:
A. fumigatus UGM [1] = target: T1, A. fumigatus UGM (Aspergillus fumigatus, UniProt Q4W1X2); assay: biochemical; format: binding; conditions: read-out: Normalized anisotropy (%)
T1 construct: 8x His-tag (TEV-cleavable) (cleaved yes); made in house; host or cells: E. coli BL21 Turbo (DE3)
Description: High-throughput screening of the Spectrum Collection library using the FP assay with the ADP-TAMRA[22] probe was performed at the Virginia Tech Center for Drug Discovery Screening Laboratory. 384 well plates (Greiner 784900) were used and the reaction volume was 15 µL using 25 mM HEPES buffer (pH 7.0). For the screening, 30 nM of ADP-TAMRA with 6.7 µM UGM (based on the Bradford assay) and 20 µM of library compound were used, with a final DMSO concentration of 2%. Fluorescence polarization measurements were performed with excitation at 544 nm and emission at 584 nm, using a wavelength cutoff of 570 nm. Anisotropy measurements were performed after 30 and 120 minutes of incubation at 25 °C. Anisotropy values were normalized to the values obtained in the negative control sample: UGM, ADP-TAMRA, and DMSO (high anisotropy values). The positive control consisted of ADP-TAMRA and DMSO (low anisotropy values). The Z prime (Z′) value was determined using equation (1) where, σN,P and μN,P represent the standard deviation and the mean value the of the negative and positive controls respectively.1 Z′=1−3(σN+σP)/|μN−μP|

A. fumigatus UGM [2] = target: T1, A. fumigatus UGM; assay: biochemical; format: biochemical; conditions: for Inhibition of product formation, concentration dependence: UPLC at 20 and 200 µM compound, 2% DMSO; for Concentration effect: UPLC; for inhibition at 200 µM: read-out: Inhibition > 50 %; for enzyme activity at which the IC50 curve plateaued: 3 min
Description: (§1) The reaction was quenched with the addition of 70 µL acetonitrile. […] Samples were run at a flow rate of 0.5 mL/min for 5 min. IC50 was also determined by following NADPH oxidation at 340 nm. […] Data was analyzed using KaleidaGraph software. […] Global fitting was performed with Graphpad Prims 6 software (La Jolla, CA).

A. fumigatus UGM [3] = target: T1, A. fumigatus UGM; assay: biochemical; format: biochemical; conditions: for Inhibition of NADPH oxidation: absence of UDP-Galf
Description: as §1

A. fumigatus UGM [4] = target: T1, A. fumigatus UGM; assay: biochemical; format: binding
Description: Binding of inhibitors to UGM was measured with an Auto-ITC 200 ITC instrument. UGM was dialyzed in 50 mM potassium phosphate buffer, pH 7.0, for 2 h at 4 °C. In all cases, ligands were dissolved in dialysis buffer and protein and ligand were filtered with a […] membrane prior to loading. […] Inhibitor concentration in the syringe was 2 mM (2% DMSO), except for chrysin where the concentration was 600 µM (4% DMSO). […] Thermodynamic parameters were determined from ITC results using Microcal Origin version 7.0 (OriginLab) with the “ITC custom” add-on installed.

UGM = target: T2, UGM (Aspergillus fumigatus, UniProt Q4W1X2); assay: ThermoFAD melting temperature assay; format: binding; conditions: for Effect on Tm of UGM: vs UGM alone
T2 construct: 8x His-tag (TEV-cleavable) (cleaved yes); made in house; host or cells: E. coli BL21 Turbo (DE3)
Description: The melting temperature[25] of UGM was determined by measuring the FAD fluorescence as a function of temperature (20–90 °C, 1 °C step) following the reported ThermoFAD procedure. The reaction mix consisted of 20 µL of 1 mg/mL UGM, 2% DMSO in 50 mM potassium phosphate buffer, pH 7.0. As a reference and positive control, the Tm was calculated in the presence DMSO and UDP (10 mM). Different concentrations of inhibitors were added in the range of 0–1 mM at a final DMSO concentration of 2% in the above-mentioned buffer. All experiments were done in triplicate.

A. fumigatus [5] = assay: Toxicity study, growth in PDA medium at 37 °C; format: cell-based, Aspergillus fumigatus
A. fumigatus [6] = assay: Congo red susceptibility assay; format: cell-based, Aspergillus fumigatus; conditions: 100 µM compound with congo red (0.5 and 1 mg/mL), 48 h, 37 °C
A. fumigatus [7] = assay: Thermotolerance study, growth in PDA at 50 °C; format: cell-based, Aspergillus fumigatus; conditions: 1000 µM compound, 48 h at 50 °C, vs reference
[8] = system: UDP-glucuronosyltransferases; conditions: cited from earlier work
A. fumigatus UGM [9] = target: T1, A. fumigatus UGM; assay: ADP-TAMRA fluorescence anisotropy binding and competition assay; conditions: for Kd: decrease in anisotropy of UGM (6.7 µM) - ADP-TAMRA (30 nM) complex, read-out: KD, competitive binding against ADP-TAMRA
Description: Our group previously developed a binding assay to identify inhibitors of flavoenzymes that use NADP(H) as substrate. Since UGM also used NADPH for reduction, we determined whether this compound bound to UGM. This was done by taking the ADP-TAMRA[22] chromophore to a final concentration of 30 nM in 25 mM HEPES buffer, pH 7.5, mixed with various concentrations of UGM (0–300 µM, based on Bradford). To determine if the chromophore was binding to the active site of UGM, the competitive binding of UDP (0–1 mM) and NADP^+ (0–10 mM) was calculated by measuring the decrease in anisotropy of the UGM (6.7 µM) - ADP-TAMRA (30 nM) complex. At each concentration of ligand, the solution was incubated for 10 min at room temperature. The sample was excited at 544 nm and the emission recorded at 584 nm using a wavelength cutoff of 570 nm.

[10] = Precipitation / solubility observed in inhibition assays; format: physicochemical
[11] = 20 µM compound, 2% DMSO, 30 nM ADP-TAMRA, normalized to negative control
[12] = inhibition at 200 µM vs 20 µM compound
[13] = 20, 100 and 1000 µM compound, 2% DMSO, 1 mg/mL UGM
[14] = product formation by UPLC with 200 µM compound, 20 µM UDP-Galf, 10 mM sodium dithionite

T1 sequence (Q4W1X2 whole entry): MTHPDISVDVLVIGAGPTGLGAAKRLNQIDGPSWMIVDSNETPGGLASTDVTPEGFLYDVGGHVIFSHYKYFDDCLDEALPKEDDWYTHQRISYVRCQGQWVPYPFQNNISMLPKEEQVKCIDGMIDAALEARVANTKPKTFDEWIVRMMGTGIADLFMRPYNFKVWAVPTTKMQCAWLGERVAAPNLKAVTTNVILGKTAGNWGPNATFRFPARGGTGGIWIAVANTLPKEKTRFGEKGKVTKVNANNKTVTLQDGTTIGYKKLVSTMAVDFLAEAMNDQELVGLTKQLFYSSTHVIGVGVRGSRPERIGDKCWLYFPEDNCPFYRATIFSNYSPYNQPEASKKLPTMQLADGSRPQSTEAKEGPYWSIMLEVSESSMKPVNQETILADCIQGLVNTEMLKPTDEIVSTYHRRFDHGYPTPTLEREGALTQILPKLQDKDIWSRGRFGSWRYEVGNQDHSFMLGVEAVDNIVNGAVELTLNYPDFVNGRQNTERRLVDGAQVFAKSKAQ
T2 sequence (Q4W1X2 whole entry): as above

Structure (SMILES): O=C1C[C@@H](c2ccc(O)cc2)Oc2cc(O)cc(O)c21 [(2S)-naringenin]
remaining activity at 20 µM (A. fumigatus UGM [1]; [11]): 23%
Inhibition of product formation, concentration dependence (A. fumigatus UGM [2]): concentration dependent potency
Concentration effect (A. fumigatus UGM [2]; [12]): +
inhibition at 200 µM (A. fumigatus UGM [2]): > 50%
Type of Inhibition (A. fumigatus UGM [3]; NADPH oxidation at different concentrations of inhibitor and NADPH): competitive against NADPH
Inhibition of NADPH oxidation (A. fumigatus UGM [3]): inhibited NADPH oxidation
Kd (A. fumigatus UGM [4]): 65 ± 13 µM
T•∆S (A. fumigatus UGM [4]; ITC, 25 °C): 0.9 ± 0.3 kcal/mol
∆G (A. fumigatus UGM [4]; ITC, 25 °C): -5.7 ± 1.0 kcal/mol
∆H (A. fumigatus UGM [4]; ITC, 25 °C): -4.8 ± 1.0 kcal/mol
Increase of Tm of UGM (UGM; [13]): ~ 2.7 °C
A. fumigatus toxicity (A. fumigatus [5]; 1000 µM): no A. fumigatus toxicity
A. fumigatus toxicity under optimal growth conditions (A. fumigatus [5]; 600 and 1000 µM, 24-48 h): not toxic
Growth decrease with congo red (A. fumigatus [6]): ~ 30%
Delay in colony development (A. fumigatus [7]): ~ 30%
Effect on UDP-glucuronosyltransferases [8]: inhibitory effect

Kd (A. fumigatus UGM [9]): 124 ± 16 µM
Structure (SMILES): Nc1ncnc2c1ncn2[C@@H]1O[C@H](COP(=O)(O)OP(=O)(O)O)[C@@H](O)[C@H]1O [ADP]

remaining activity at 20 µM (A. fumigatus UGM [1]; [11]): 14%
Concentration effect (A. fumigatus UGM [2]; [12]): -
inhibition at 200 µM (A. fumigatus UGM [2]; [14]): < 50%
Structure (SMILES): O=C(O)C1=CC(=C(c2ccc(O)c(C(=O)O)c2)c2ccc(O)c(C(=O)O)c2)C=CC1=O [Aurin tricarboxylic acid]

Structure (SMILES): O=c1cc(-c2ccccc2)oc2cc(O)cc(O)c12 [Chrysin]
remaining activity at 20 µM (A. fumigatus UGM [1]; [11]): 48%
IC50 (A. fumigatus UGM [2]): 24 ± 4 µM
enzyme activity at which the IC50 curve plateaued (A. fumigatus UGM [2]; UPLC IC50 curve saturating below full inhibition (chrysin at ~30 µM)): ~ 35%
Inhibition of product formation, concentration dependence (A. fumigatus UGM [2]): concentration dependent potency
Concentration effect (A. fumigatus UGM [2]; [12]): +
inhibition at 200 µM (A. fumigatus UGM [2]): > 50%
IC50 (A. fumigatus UGM [3]): > 1000 µM
Inhibition of NADPH oxidation (A. fumigatus UGM [3]): did not inhibit NADPH oxidation
Binding to UGM detected by ITC (A. fumigatus UGM [4]): nor was binding detected
Effect on Tm of UGM (UGM; [13]): no effect on Tm
Concentration above which compound precipitated ([10]; with 2% DMSO): above 100 µM

Structure (SMILES): N#CC(c1ccc(Cl)cc1)c1c(Cl)cc(-n2ncc(=O)[nH]c2=O)cc1Cl (centres unmarked) [Diclazuril, reference compound]
remaining activity at 20 µM (A. fumigatus UGM [1]; [11]): 37%
Inhibition of product formation, concentration dependence (A. fumigatus UGM [2]): concentration dependent potency
Concentration effect (A. fumigatus UGM [2]; [12]): +
inhibition at 200 µM (A. fumigatus UGM [2]; [14]): > 50%
Effect on Tm of UGM (UGM; [13]): reduced the Tm

remaining activity at 20 µM (A. fumigatus UGM [1]; [11]): 37%
Concentration effect (A. fumigatus UGM [2]; [12]): -
inhibition at 200 µM (A. fumigatus UGM [2]; [14]): < 50%
Structure (SMILES): COc1cc(C)c(C(=O)Oc2cc(C)c(C(=O)O)c(O)c2C)c(OC)c1C [Diffractaic acid]

remaining activity at 20 µM (A. fumigatus UGM [1]; [11]): 50%
Concentration effect (A. fumigatus UGM [2]; ellagic acid assayed at 6 and 12 µM with 2% DMSO due to low solubility): -
Solubility [10]: low solubility
Structure (SMILES): O=c1oc2c(O)c(O)cc3c(=O)oc4c(O)c(O)cc1c4c23 [Ellagic acid]

Structure (SMILES): Cc1nc(-c2ccc(OCC(C)C)c(C#N)c2)sc1C(=O)O [Febuxostat, reference compound]
remaining activity at 20 µM (A. fumigatus UGM [1]; [11]): 39%
Inhibition of product formation, concentration dependence (A. fumigatus UGM [2]): concentration dependent potency
Concentration effect (A. fumigatus UGM [2]; [12]): +
inhibition at 200 µM (A. fumigatus UGM [2]): > 50%
Effect on Tm of UGM (UGM; [13]): reduced the Tm

anisotropy at which the KD curve plateaued (A. fumigatus UGM [9]; 30 nM ADP-TAMRA): around 50%
remaining activity at 20 µM (A. fumigatus UGM [1]; [11]): 38%
enzyme activity at which the IC50 curve plateaued (A. fumigatus UGM [2]): around 70%
Concentration effect (A. fumigatus UGM [2]; [12]): +
inhibition at 200 µM (A. fumigatus UGM [2]; [14]): > 50%
Structure (SMILES): O=c1c(O)c(-c2ccc(O)cc2)oc2cc(O)cc(O)c12 [Kaempferol]

Kd (A. fumigatus UGM [9]): 92 ± 13 µM
T•∆S (A. fumigatus UGM [4]; ITC, 25 °C): -8.4 ± 0.7 kcal/mol
∆G (A. fumigatus UGM [4]; ITC, 25 °C): -4.6 ± 0.3 kcal/mol
∆H (A. fumigatus UGM [4]; ITC, 25 °C): -13.0 ± 0.3 kcal/mol
Kd (A. fumigatus UGM [4]; ITC, 25 °C, read-out: KD): 413 ± 24 µM
Structure (SMILES): NC(=O)c1ccc[n+]([C@@H]2O[C@H](COP(=O)([O-])OP(=O)(O)OC[C@H]3O[C@@H](n4cnc5c(N)ncnc54)[C@H](OP(=O)(O)O)[C@@H]3O)[C@@H](O)[C@H]2O)c1 [NADP^+, reference compound]

Structure (SMILES): O=C(NCCO[N+](=O)[O-])c1cccnc1 [Nicorandil, reference compound]
remaining activity at 20 µM (A. fumigatus UGM [1]): 27%
Concentration effect (A. fumigatus UGM [2]; [12]): -
inhibition at 200 µM (A. fumigatus UGM [2]): < 50%

Structure (SMILES): CS(=O)(=O)Nc1ccc([N+](=O)[O-])cc1Oc1ccccc1 [Nimesulide, reference compound]
remaining activity at 20 µM (A. fumigatus UGM [1]): 28%
Concentration effect (A. fumigatus UGM [2]; [12]): -
inhibition at 200 µM (A. fumigatus UGM [2]): < 50%

Structure (SMILES): O=C(O)c1cc(/N=N/c2ccc(O)c(C(=O)O)c2)ccc1O [Olsalazine sodium, reference compound]
remaining activity at 20 µM (A. fumigatus UGM [1]): 48%
Concentration effect (A. fumigatus UGM [2]; [12]): -
inhibition at 200 µM (A. fumigatus UGM [2]): < 50%

Inhibition of UGM by derivatives (A. fumigatus UGM [2]): no inhibition
Structure (SMILES): O=C1C[C@H](c2ccc(O)cc2)Oc2cc(O)cc(O)c21 [R enantioniomer of naringenin, (2 R)-naringenin]

Structure (SMILES): Cc1ccc(C(=O)Nc2ccc(S(=O)(=O)O)c3cc(S(=O)(=O)O)cc(S(=O)(=O)O)c23)cc1NC(=O)c1cccc(NC(=O)Nc2cccc(C(=O)Nc3cc(C(=O)Nc4ccc(S(=O)(=O)O)c5cc(S(=O)(=O)O)cc(S(=O)(=O)O)c45)ccc3C)c2)c1 [Suramin hexasodium, reference compound]
remaining activity at 20 µM (A. fumigatus UGM [1]): 41%
Concentration effect (A. fumigatus UGM [2]; [12]): -
inhibition at 200 µM (A. fumigatus UGM [2]): < 50%

Structure (SMILES): O=c1ccn([C@@H]2O[C@H](COP(=O)(O)OP(=O)(O)O)[C@@H](O)[C@H]2O)c(=O)[nH]1 [UDP, reference compound]
Kd (A. fumigatus UGM [9]): 10 ± 1 µM
T•∆S (A. fumigatus UGM [4]; ITC, 25 °C): 10.5 ± 0.3 kcal/mol
∆G (A. fumigatus UGM [4]; ITC, 25 °C): -7.1 ± 0.1 kcal/mol
∆H (A. fumigatus UGM [4]; ITC, 25 °C): 3.3 ± 0.1 kcal/mol
Kd (A. fumigatus UGM [4]; ITC, 25 °C, read-out: KD): 5.4 ± 0.8 µM
Shift of Tm of UGM (UGM; 10 mM UDP): 3 °C

Inhibition of UGM by derivatives (A. fumigatus UGM [2]): no inhibitory effect
Structure (SMILES): O=C1C[C@@H](c2ccc(O)cc2)Oc2cc(O)ccc21 [liquiritigenin]

From PMC5589893, “Identification of Aspergillus fumigatus UDP-Galactopyranose Mutase Inhibitors” (Scientific Reports, 2017)
